The results in this text go back to US11453683B1, “KRas G12D inhibitors” (Mirati Therapeutics, Inc., priority 2019, dated 2022).

This experiment has as its system KRas G12D-mediated phosphorylation of ERK. The experiment is described as follows: Inhibition of KRas G12D-mediated phosphorylation of ERK in AGS cells. It is filed as cell-based. The conditions noted are these: Homo sapiens; AGS cells expressing G12D, 3 hours, phospho-ERK normalized to GAPDH. Put shortly:
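Fixed, methanol-permeabilized; phospho-ERK (Thr202/Tyr204) by in-cell immunofluorescence normalized to GAPDH. Percent of DMSO control, IC50 by 4-parameter fit.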

By IC50 is commonly meant the concentration that gives 50% inhibition. For the compound `NC(=O)Cc1cccc2cccc(-c3ncc4c(N5C[C@H]6CC[C@@H](C5)N6)nc(OCC56CCCN5CCC6)nc4c3F)c12` [Example 240, 2-(8-(4-((1R,5S)-3,8-diazabicyclo[3.2.1]octan-3-yl)-8-fluoro-2-((tetrahydro-1H-pyrrolizin-7a(5H)-yl)methoxy)pyrido[4,3-d]pyrimidin-7-yl)naphthalen-1-yl)acetamide], the half-maximal inhibitory concentration (IC50) is over 16.7 µM.

For `CCc1cccc2cc(O)cc(-c3ncc4c(N5C[C@H]6CC[C@@H](C5)N6)nc(OC[C@]56CCCN5[C@@H](COC(=O)NC)CC6)nc4c3F)c12` [Example 433, ((3R,7aR)-7a-(((4-((1R,5S)-3,8-diazabicyclo[3.2.1]octan-3-yl)-7-(8-ethyl-3-hydroxynaphthalen-1-yl)-8-fluoropyrido[4,3-d]pyrimidin-2-yl)oxy)methyl)hexahydro-1H-pyrrolizin-3-yl)methyl methylcarbamate], the 50% inhibitory concentration (IC50) amounted to 0.0432 µM.

`OCCCOc1nc(N2C[C@H]3CC[C@@H](C2)N3)c2cnc(-c3cc(O)cc4ccccc34)c(F)c2n1` [Example 75, 4-(4-((1R,5S)-3,8-diazabicyclo[3.2.1]octan-3-yl)-8-fluoro-2-(3-hydroxypropoxy)pyrido[4,3-d]pyrimidin-7-yl)naphthalen-2-ol] returned an IC50 of over 16.7 µM.

As to `Nc1nc(N2CC3CCC(C2)N3)c2cnc(-c3cc(O)cc4ccccc34)c(F)c2n1` [Example 182, 4-[2-amino-4-(3,8-diazabicyclo[3.2.1]octan-3-yl)-8-fluoro-pyrido[4,3-d]pyrimidin-7-yl]naphthalen-2-ol], the IC50 is 13.5 µM. That is a double-digit micromolar value.

`Cn1ccnc1CCOc1nc(N2C[C@H]3CC[C@@H](C2)N3)c2cnc(-c3cccc4cccc(Cl)c34)c(F)c2n1` [Example 114, 4-((1R,5S)-3,8-diazabicyclo[3.2.1]octan-3-yl)-7-(8-chloronaphthalen-1-yl)-8-fluoro-2-(2-(1-methyl-1H-imidazol-2-yl)ethoxy)pyrido[4,3-d]pyrimidine] registered a concentration for half-maximal inhibition (IC50) of 10.3 µM. The IC50 values of the last two compounds are within 1.5-fold of each other.

Compound `CCc1cccc2cc(O)cc(-c3ncc4c(N5C[C@H]6CC[C@@H](C5)N6)nc(OC[C@@]56CCCN5C[C@H](F)C6)nc4c3F)c12` [Example 259, 4-(4-((1R,5S)-3,8-diazabicyclo[3.2.1]octan-3-yl)-8-fluoro-2-(((2R,7aS)-2-fluorotetrahydro-1H-pyrrolizin-7a(5H)-yl)methoxy)pyrido[4,3-d]pyrimidin-7-yl)-5-ethylnaphthalen-2-ol] displayed an IC50 of 0.0039 µM.

Consider `CCc1c(Cl)cccc1-c1ncc2c(N3C[C@H]4CC[C@@H](C3)N4)nc(OCC34CCCN3CCC4)nc2c1F` [Example 312, 4-((1R,5S)-3,8-diazabicyclo[3.2.1]octan-3-yl)-7-(3-chloro-2-ethylphenyl)-8-fluoro-2-((hexahydro-1H-pyrrolizin-7a-yl)methoxy)pyrido[4,3-d]pyrimidine], for which the 50% inhibitory concentration (IC50) was 1.88 µM.

Compound `Fc1cccc(-c2ncc3c(N4C[C@H]5CC[C@@H](C4)N5)nc(OCC45CCCN4CCC5)nc3c2F)c1C(F)(F)F` [Example 292, 4-((1R,5S)-3,8-diazabicyclo[3.2.1]octan-3-yl)-8-fluoro-7-(3-fluoro-2-(trifluoromethyl)phenyl)-2-((tetrahydro-1H-pyrrolizin-7a(5H)-yl)methoxy)pyrido[4,3-d]pyrimidine] showed an IC50 of 1.7 µM.

In turn, `CNC(=O)OC[C@H]1CC[C@@]2(COc3nc(N4CC5CCC(C4)N5)c4cnc(-c5cccc6cccc(Cl)c56)c(F)c4n3)CCCN12` [Example 408, (7a-(((4-(3,8-diazabicyclo[3.2.1]octan-3-yl)-7-(8-chloronaphthalen-1-yl)-8-fluoropyrido[4,3-d]pyrimidin-2-yl)oxy)methyl)hexahydro-1H-pyrrolizin-3-yl)methyl methylcarbamate] returned a concentration for half-maximal inhibition (IC50) of 0.238 µM.

In turn, `CN1CCC[C@H]1COc1nc(N2C[C@H]3CC[C@@H](C2)N3)c2cnc(-c3cccc4ccc(F)cc34)c(F)c2n1` [Example 19, 4-((1R,5S)-3,8-diazabicyclo[3.2.1]octan-3-yl)-8-fluoro-7-(7-fluoronaphthalen-1-yl)-2-(((S)-1-methylpyrrolidin-2-yl)methoxy)pyrido[4,3-d]pyrimidine] returned an IC50 of over 16.7 µM.

With `CC(Oc1nc(N2C[C@H]3CC[C@@H](C2)N3)c2cnc(-c3cc(O)cc4ccccc34)c(F)c2n1)C1CCCN1C` (stereo partly drawn) [Example 27, 4-(4-((1R,5S)-3,8-diazabicyclo[3.2.1]octan-3-yl)-8-fluoro-2-(1-(1-methylpyrrolidin-2-yl)ethoxy)pyrido[4,3-d]pyrimidin-7-yl)naphthalen-2-ol], the IC50 worked out at 1.28 µM.

As to `O=S1(=O)CCC(Oc2nc(N3C[C@H]4CC[C@@H](C3)N4)c3cnc(-c4cc(O)cc5ccccc45)c(F)c3n2)CC1` [Example 71, 4-((4-((1R,5S)-3,8-diazabicyclo[3.2.1]octan-3-yl)-8-fluoro-7-(3-hydroxynaphthalen-1-yl)pyrido[4,3-d]pyrimidin-2-yl)oxy)tetrahydro-2H-thiopyran 1,1-dioxide], the concentration for half-maximal inhibition (IC50) is over 16.7 µM.

`Oc1cc(-c2ncc3c(N4C[C@H]5CC[C@@H](C4)N5)nc(OCC(F)(F)C(F)F)nc3c2F)c2ccccc2c1` [Example 52, 4-(4-((1R,5S)-3,8-diazabicyclo[3.2.1]octan-3-yl)-8-fluoro-2-(2,2,3,3-tetrafluoropropoxy)pyrido[4,3-d]pyrimidin-7-yl)naphthalen-2-ol] came in with an IC50 of 8.38 µM.

`Oc1cc(-c2ncc3c(N4C[C@H]5CC[C@@H](C4)N5)nc(OC[C@@]45CCCN4C[C@H](F)C5)nc3c2F)c2c(F)c(F)ccc2c1` [Example 246, 4-(4-((1R,5S)-3,8-diazabicyclo[3.2.1]octan-3-yl)-8-fluoro-2-(((2R,7aS)-2-fluorohexahydro-1H-pyrrolizin-7a-yl)methoxy)pyrido[4,3-d]pyrimidin-7-yl)-5,6-difluoronaphthalen-2-ol] came in with an IC50 of 0.001 µM.

Regarding `Fc1c(-c2ccccc2C2CC2)ncc2c(N3C[C@H]4CC[C@@H](C3)N4)nc(OCC34CCCN3CCC4)nc12` [Example 297, 4-((1R,5S)-3,8-diazabicyclo[3.2.1]octan-3-yl)-7-(2-cyclopropylphenyl)-8-fluoro-2-((hexahydro-1H-pyrrolizin-7a-yl)methoxy)pyrido[4,3-d]pyrimidine], the midpoint of inhibition, the IC50, lay at 6.56 µM.

`CCc1cccc2cc(O)cc(-c3ncc4c(N5CC6CCC(C5)N6)nc(OC[C@]56CCCN5[C@@H](COC(=O)N(C)C)CC6)nc4c3F)c12` [Example 434, 7a-(((4-((1R,5S)-3,8-diazabicyclo[3.2.1]octan-3-yl)-7-(8-ethyl-3-hydroxynaphthalen-1-yl)-8-fluoropyrido[4,3-d]pyrimidin-2-yl)oxy)methyl)hexahydro-1H-pyrrolizin-3-yl)methyl dimethyl carbamate] yielded a half-inhibitory concentration (IC50) of 0.0067 µM.

Compound `Oc1cc(-c2ncc3c(N4C[C@H]5CC[C@@H](C4)N5)nc(OCC4(C(F)(F)F)CC4)nc3c2F)c2ccccc2c1` [Example 51, 4-(4-((1R,5S)-3,8-diazabicyclo[3.2.1]octan-3-yl)-8-fluoro-2-((1-(trifluoromethyl)cyclopropyl)methoxy)pyrido[4,3-d]pyrimidin-7-yl)naphthalen-2-ol] gave a concentration for half-maximal inhibition (IC50) of 12.1 µM.

For the compound `Oc1cc(-c2ncc3c(N4C[C@H]5CC[C@@H](C4)N5)nc(OC[C@@H]4CCCN4)nc3c2F)c2ccccc2c1` [Example 50, 4-(4-((1R,5S)-3,8-diazabicyclo[3.2.1]octan-3-yl)-8-fluoro-2-(((S)-pyrrolidin-2-yl)methoxy)pyrido[4,3-d]pyrimidin-7-yl)naphthalen-2-ol], it took 15.4 µM to reach half-maximal inhibition (IC50).

The compound `Oc1cc(-c2ncc3c(N4C[C@H]5CC[C@@H](C4)N5)nc(OCCc4cccnc4)nc3c2F)c2ccccc2c1` [Example 106, 4-(4-((1R,5S)-3,8-diazabicyclo[3.2.1]octan-3-yl)-8-fluoro-2-(2-(pyridin-3-yl)ethoxy)pyrido[4,3-d]pyrimidin-7-yl)naphthalen-2-ol] registered an IC50 of 3.1 µM.

With `OCC(CO)COc1nc(N2C[C@H]3CC[C@@H](C2)N3)c2cnc(-c3cccc4cccc(Cl)c34)c(F)c2n1` [Example 35, 2-(((4-((1R,5S)-3,8-diazabicyclo[3.2.1]octan-3-yl)-7-(8-chloronaphthalen-1-yl)-8-fluoropyrido[4,3-d]pyrimidin-2-yl)oxy)methyl)propane-1,3-diol], half-maximal inhibition (IC50) was put at 11.3 µM.

Compound `Cn1ccnc1COc1nc(N2C[C@H]3CC[C@@H](C2)N3)c2cnc(-c3cc(O)cc4ccccc34)c(F)c2n1` [Example 104, 4-(4-((1R,5S)-3,8-diazabicyclo[3.2.1]octan-3-yl)-8-fluoro-2-((1-methyl-1H-imidazol-2-yl)methoxy)pyrido[4,3-d]pyrimidin-7-yl)naphthalen-2-ol] registered an IC50 of over 16.7 µM.

For the compound `CCc1c(F)ccc2cccc(-c3ncc4c(N5CC6CCC(C5)N6)nc(OC[C@@]56CCCN5C[C@H](F)C6)nc4c3F)c12` (stereo in doubt) [Example 381, 4-((1R,5S)-3,8-diazabicyclo[3.2.1]octan-3-yl)-7-(8-ethyl-7-fluoronaphthalen-1-yl)-8-fluoro-2-((2-fluorotetrahydro-1H-pyrrolizin-7a(5H)-yl)methoxy)pyrido[4,3-d]pyrimidine], the midpoint of inhibition, the IC50, lay at 0.708 µM. In other words, the sub-micromolar range.

The compound `O=C(CCl)N1CCC(Oc2nc(N3C[C@H]4CC[C@@H](C3)N4)c3cnc(-c4cccc5cccc(Cl)c45)c(F)c3n2)CC1` [Example 163, 1-(4-((4-((1R,5S)-3,8-diazabicyclo[3.2.1]octan-3-yl)-7-(8-chloronaphthalen-1-yl)-8-fluoropyrido[4,3-d]pyrimidin-2-yl)oxy)piperidin-1-yl)-2-chloroethan-1-one bis(2,2,2-trifluoroacetate)] had an IC50 of over 16.7 µM.

`Fc1ccc2cccc(-c3ncc4c(N5CC6CCC(C5)N6)nc(OC[C@@]56CCCN5C[C@H](F)C6)nc4c3F)c2c1Cl` (racemic) [Example 336, 4-((1R,5S)-3,8-diazabicyclo[3.2.1]octan-3-yl)-7-(8-chloro-7-fluoronaphthalen-1-yl)-8-fluoro-2-((2-fluorotetrahydro-1H-pyrrolizin-7a(5H)-yl)methoxy)pyrido[4,3-d]pyrimidine] showed an IC50 of 1.06 µM.
